Data taken from patent US8815928B2, “Hepatitis C virus inhibitors” (priority 2009, dated 2014).

Tested on: HCV 1b genotype replicon
Assay: HCV genotype-1b replicon assay (qRT-PCR or luciferase)
Format: cell-based
Settings: Hepatitis C virus, read-out: Genotype-1b replicon EC50 Range
Excerpt: HCV replicon cell lines (kindly provided by R. Bartenschlager) isolated from colonies as described by Lohman et. al. (Lohman et al. (1999) Science 285: 110-113, expressly incorporated by reference in its entirety) and used for all experiments. The HCV replicon has the nucleic acid sequence set forth in EMBL Accession No.: AJ242651, the coding sequence of which is from nucleotides 1801 to 8406.
The coding sequence of the published HCV replicon was synthesized and subsequently assembled in a modified plasmid pBR322 (Promega, Madison, Wis.) using standard molecular biology techniques. […]
EC50 values of single agent compounds and combinations were determined by HCV RNA detection using quantitative RT-PCR, according to the manufacturer's instructions, with a TAQMAN® One-Step RT-PCR Master Mix Reagents Kit (Cat# AB 4309169, Applied Biosystems) on an ABI Model 7500 thermocycler. The TaqMan primers used for detecting and quantifying HCV RNA were obtained from Integrated DNA Technologies. HCV RNA was normalized to GAPDH RNA levels in drug-treated cells, which was detected and quantified using the Human GAPDH Endogenous Control Mix (Applied Biosystems, AB 4310884E). […] Chemical agent cytotoxicity was evaluated using an MTS assay according to the manufacturer's directions (Promega). […]

`COC(=O)N[C@H](C(=O)N1CCC[C@H]1C(=O)Nc1ncc(-c2ccc3cc(-c4cnc([C@@H]5CCCN5C(=O)[C@@H](NC(=O)OC)C(C)C)[nH]4)ccc3c2)cn1)C(C)C` [Compound 348] was tested. Which EC50 did it give?
The EC50 was 1 to 10 nM.
